According to patent publication US11299478B2, “2-cyanopyrimidin-4-yl carbamate or urea derivative or salt thereof, and pharmaceutical composition including same” (HANLIM PHARMACEUTICAL CO., LTD., priority 2018, dated 2022):

Target: T1, cathepsin K (Homo sapiens, UniProt P43235)
T1 sequence (P43235 115-329): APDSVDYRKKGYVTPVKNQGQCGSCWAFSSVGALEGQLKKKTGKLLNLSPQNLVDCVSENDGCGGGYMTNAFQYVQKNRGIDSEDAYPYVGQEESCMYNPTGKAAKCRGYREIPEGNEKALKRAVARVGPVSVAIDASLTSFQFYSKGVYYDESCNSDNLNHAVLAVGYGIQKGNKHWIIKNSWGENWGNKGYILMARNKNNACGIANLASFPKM
Experiment: Inhibitory activity assay against cathepsin K (enzyme assay)
Type: biochemical
Conditions: Z-Phe-Arg-AMC 10 μM, enzyme 1 nM, pH 5.5, 30 minutes
Procedure: In order to measure the enzyme activity of cathepsin K, a buffer solution (pH 5.5) consisting of 50 mM 2-(N-morpholino)ethanesulfonic acid (MES), 2 mM dithiothreitol (DTT), 2.5 mM ethylenediaminetetraacetic acid (EDTA), 0.01% Triton X-100, and 10% dimethyl sulfoxide (DMSO) was prepared. The substrate, the test material, and the enzyme were mixed in the buffer solution in a predetermined concentration. The Z-Phe-Arg-AMC substrate was used in the final concentration of 10 μM. The test material was used in the final concentrations of 10.0 μM, 3.33 μM, 1.11 μM, 0.370 μM, 0.123 μM, 0.0412 μM, 0.0137 μM, 0.00457 μM, 0.00152 μM, and 0.000508 μM, respectively. The cathepsin K enzyme was used in the final concentration of 1 nM. The final volume of the enzyme reaction solution was 10 μL. After reacting the mixture of substrate, test material, and enzyme for 30 minutes, the enzyme activity was measured with the Synergy Neo (Biotek) microplate reader at an absorption wavelength of 355 nm and an emission wavelength of 460 nm. IC50 values were determined using 4-parameter logistic curve fit program of GraphPad Prism.

Structure (SMILES) | IC50 [nM]
CC(C)C1CCN(c2ccc(NC(=O)NC3(c4ccnc(C#N)n4)CCCCC3)cc2)CC1 [Example 145, 1-(1-(2-cyanopyrimidin-4-yl)cyclohexyl)-3-(4-(4-isopropylpiperidin-1-yl)phenyl)urea] | 76
COc1ccc(CNC(=O)NC2(c3ccnc(C#N)n3)CCCC2)cc1OC [Example 49, 1-(1-(2-cyanopyrimidin-4-yl)cyclopentyl)-3-(3,4-dimethoxybenzyl)urea] | 590
COCCc1ccc(OCc2ccc(-c3ccc(NC(=O)NC4(c5ccnc(C#N)n5)CCCCC4)cc3)cc2)cc1 [Example 152, 1-(1-(2-cyanopyrimidin-4-yl)cyclohexyl)-3-(4′-((4-(2-methoxyethyl)phenoxy)methyl)-[1,1′-biphenyl]-4-yl)urea] | 2400
Cn1ncc2ccc(-c3ccc(COC(=O)NC4(c5ccnc(C#N)n5)CCCC4)cc3)cc21 [Example 34, 4-(1-methyl-1H-indazol-6-yl)benzyl (1-(2-cyanopyrimidin-4-yl)cyclopentyl)carbamate] | 2040
COc1ccc(CNC(=O)NC2(c3ccnc(C#N)n3)CCCC2)cc1 [Example 70, 1-(1-(2-cyanopyrimidin-4-yl)cyclopentyl)-3-(4-methoxybenzyl)urea] | 270
N#Cc1nccc(C2(NC(=O)NCc3cccc(C(F)(F)F)c3)CCCC2)n1 [Example 57, 1-(1-(2-cyanopyrimidin-4-yl)cyclopentyl)-3-(3-(trifluoromethyl)benzyl)urea] | 517
N#Cc1nccc(C2(NC(=O)NCc3ccc(C(F)(F)F)cc3)CCCC2)n1 [Example 58, 1-(1-(2-cyanopyrimidin-4-yl)cyclopentyl)-3-(4-(trifluoromethyl)benzyl)urea] | 116
COc1cccc(COC(=O)NC2(c3ccnc(C#N)n3)CCCC2)c1 [Example 6, 3-methoxybenzyl (1-(2-cyanopyrimidin-4-yl)cyclopentyl)carbamate] | 179
N#Cc1cccc(COC(=O)NC2(c3ccnc(C#N)n3)CCCC2)c1 [Example 9, 3-cyanobenzyl (1-(2-cyanopyrimidin-4-yl)cyclopentyl)carbamate] | 490
COc1ccccc1CNC(=O)NC1(c2ccnc(C#N)n2)CCCC1 [Example 68, 1-(1-(2-cyanopyrimidin-4-yl)cyclopentyl)-3-(2-methoxybenzyl)urea] | 219
N#Cc1nccc(C2(NC(=O)OCc3ccccc3)CCCC2)n1 [Example 1, Benzyl (1-(2-cyanopyrimidin-4-yl)cyclopentyl)carbamate] | 23
N#Cc1nccc(C2(NC(=O)OCc3cccc(-c4ccc(N5CCOCC5)cc4)c3)CCCC2)n1 [Example 32, (4′-morpholino-[1,1′-biphenyl]-3-yl)methyl (1-(2-cyanopyrimidin-4-yl)cyclopentyl)carbamate] | ≥ 10000
N#Cc1nccc(C2(NC(=O)Nc3cccc(-c4ccc(C(F)(F)F)cc4)c3)CCCCC2)n1 [Example 112, 1-(1-(2-cyanopyrimidin-4-yl)cyclohexyl)-3-(4′-(trifluoromethyl)-[1,1′-biphenyl]-3-yl)urea] | 147
N#Cc1nccc(C2(NC(=O)NCCc3ccc(S(N)(=O)=O)cc3)CCCC2)n1 [Example 45, 4-(2-(3-(1-(2-cyanopyrimidin-4-yl)cyclopentyl)ureido)ethyl)benzenesulfonamide] | 3430
N#Cc1nccc(C2(NC(=O)Nc3ccc(N4CCNCC4)cc3)CCCC2)n1 [Example 52, 1-(1-(2-cyanopyrimidin-4-yl)cyclopentyl)-3-(4-(piperazin-1-yl)phenyl)urea] | 608
N#Cc1nccc(C2(NC(=O)NCc3ccoc3)CCCC2)n1 [Example 53, 1-(1-(2-cyanopyrimidin-4-yl)cyclopentyl)-3-(furan-3-ylmethyl)urea] | 320
COC(=O)CCC#Cc1ccc(-c2ccc(NC(=O)NC3(c4ccnc(C#N)n4)CCCCC3)cc2)cc1 [Example 175, methyl 5-(4′-(3-(1-(2-cyanopyrimidin-4-yl)cyclohexyl)ureido)-[1,1′-biphenyl]-4-yl)pent-4-ynoate] | 136

More lines, now with the values ahead:

IC50 [nM] | Structure (SMILES)
3080 | COc1ccccc1NC(=O)NC1(c2ccnc(C#N)n2)CCCC1 [Example 79, 1-(1-(2-cyanopyrimidin-4-yl)cyclopentyl)-3-(2-methoxyphenyl)urea]
157 | COc1cccc(NC(=O)NC2(c3ccnc(C#N)n3)CCCC2)c1 [Example 80, 1-(1-(2-cyanopyrimidin-4-yl)cyclopentyl)-3-(3-methoxyphenyl)urea]
111 | N#Cc1nccc(C2(NC(=O)Nc3ccc(C(=O)O)cc3)CCCCC2)n1 [Example 135, 4-(3-(1-(2-cyanopyrimidin-4-yl)cyclohexyl)ureido)benzoic acid]
315 | N#Cc1nccc(C2(NC(=O)Nc3ccccc3O)CCCC2)n1 [Example 73, 1-(1-(2-cyanopyrimidin-4-yl)cyclopentyl)-3-(2-hydroxyphenyl)urea]
331 | N#Cc1nccc(C2(NC(=O)Nc3ccc(S(N)(=O)=O)cc3)CCCC2)n1 [Example 72, 4-(3-(1-(2-cyanopyrimidin-4-yl)cyclopentyl)ureido)benzenesulfonamide]
162 | COc1ccc(NC(=O)NC2(c3ccnc(C#N)n3)CCCC2)cc1 [Example 81, 1-(1-(2-cyanopyrimidin-4-yl)cyclopentyl)-3-(4-methoxyphenyl)urea]
108 | Cc1ccc(NC(=O)NC2(c3ccnc(C#N)n3)CCCC2)cc1 [Example 39, 1-(1-(2-cyanopyrimidin-4-yl)cyclopentyl)-3-(para-tolyl)urea]
174 | N#Cc1nccc(C2(NC(=O)Nc3ccccc3C(F)(F)F)CCCC2)n1 [Example 59, 1-(1-(2-cyanopyrimidin-4-yl)cyclopentyl)-3-(2-(trifluoromethyl)phenyl)urea]
285 | N#Cc1nccc(C2(NC(=O)OCc3cccc(Cl)c3)CCCC2)n1 [Example 8, 3-chlorobenzyl (1-(2-cyanopyrimidin-4-yl)cyclopentyl)carbamate]
161 | Cc1cccc(COC(=O)NC2(c3ccnc(C#N)n3)CCCC2)c1 [Example 5, 3-methylbenzyl (1-(2-cyanopyrimidin-4-yl)cyclopentyl)carbamate]
547 | N#Cc1nccc(C2(NC(=O)Nc3cccc(O)c3)CCCC2)n1 [Example 71, 1-(1-(2-cyanopyrimidin-4-yl)cyclopentyl)-3-(3-hydroxyphenyl)urea]
552 | COc1cccc(CNC(=O)NC2(c3ccnc(C#N)n3)CCCC2)c1 [Example 69, 1-(1-(2-cyanopyrimidin-4-yl)cyclopentyl)-3-(3-methoxybenzyl)urea]
573 | Cn1ncc2cc(NC(=O)NC3(c4ccnc(C#N)n4)CCCC3)ccc21 [Example 76, 1-(1-(2-cyanopyrimidin-4-yl)cyclopentyl)-3-(1-methyl-1H-indazol-5-yl)urea]
113 | Cc1ccccc1NC(=O)NC1(c2ccnc(C#N)n2)CCCC1 [Example 37, 1-(1-(2-cyanopyrimidin-4-yl)cyclopentyl)-3-(ortho-tolyl)urea]
105 | Cc1cccc(CNC(=O)NC2(c3ccnc(C#N)n3)CCCC2)c1 [Example 47, 1-(1-(2-cyanopyrimidin-4-yl)cyclopentyl)-3-(3-methylbenzyl)urea]
292 | N#Cc1nccc(C2(NC(=O)Nc3ccc(C(F)(F)F)cc3)CCCC2)n1 [Example 61, 1-(1-(2-cyanopyrimidin-4-yl)cyclopentyl)-3-(4-(trifluoromethyl)phenyl)urea]
